This is an account of results in patent US5166214A, “Use of imidazoles for the treatment of atherosclerosis” (priority 1990, dated 1992).

The target in test [1] is T1, Acyl-CoA: Cholesterol Acyltransferase (ACAT) (Rattus norvegicus, UniProt Q7TQM4).
T1 construct: Microsomes were obtained by differential centrifugation; from tissue; host or cells: liver microsomes of male Sprague Dawley rats
T1 sequence (Q7TQM4 1-524): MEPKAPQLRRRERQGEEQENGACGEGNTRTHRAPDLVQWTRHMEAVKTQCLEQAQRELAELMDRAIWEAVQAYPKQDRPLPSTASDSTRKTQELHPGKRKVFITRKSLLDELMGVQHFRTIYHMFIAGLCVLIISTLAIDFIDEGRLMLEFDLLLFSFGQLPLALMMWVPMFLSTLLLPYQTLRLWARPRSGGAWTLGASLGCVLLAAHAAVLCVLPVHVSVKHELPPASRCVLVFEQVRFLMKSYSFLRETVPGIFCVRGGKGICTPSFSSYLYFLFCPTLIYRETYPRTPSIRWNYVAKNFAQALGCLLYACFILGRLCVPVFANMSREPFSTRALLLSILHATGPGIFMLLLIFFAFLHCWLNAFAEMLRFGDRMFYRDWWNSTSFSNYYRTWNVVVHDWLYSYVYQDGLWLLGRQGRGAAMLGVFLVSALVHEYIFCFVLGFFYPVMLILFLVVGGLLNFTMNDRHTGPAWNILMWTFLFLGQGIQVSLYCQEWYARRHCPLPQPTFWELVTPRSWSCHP
Kind of test: Inhibition of acyl-CoA: cholesterol acyltransferase (ACAT) in hepatic microsomes (in vitro). The conditions noted are these: 75 μM 14C-oleoyl-CoA, pH 7.4, 37° C. Type of test: biochemical, rat (male Sprague Dawley). Here is the method:
A. Assay of the Inhibition of Acyl-CoA: Cholesterol Acyltransferase (ACAT) in Hepatic Microsomes
The ability of the compounds to inhibit ACAT, the enzyme responsible for the intracellular synthesis of cholesteryl esters, was tested as follows. Male Sprague Dawley rats weighing 150-300 g, were fed rat chow ad libitum. The animals were fasted for twenty-four hours prior to being sacrificed by decapitation. The livers were perfused in situ with 50 ml of cold 0.25M sucrose, excised, and homogenized in three volumes of 0.1M phosphate buffer, pH 7.4, that contained 0.5 mM EDTA (ethylenediaminetetraacetic acid), 1.0 mM glutathione, 0.25M sucrose and […]. Microsomes were obtained by differential centrifugation; the supernatant from an initial spin at 15,000×g for 15 minutes was centrifuged at 105,000×g for 1 hour to pellet the microsomes. The microsomes were suspended in homogenization buffer, reisolated by centrifugation, and stored at -70° C. Microsomes were used within one month of preparation.
The control assay in a final volume of 200 μl consisted of 200 μg of microsomal protein, 75 μM ^14 C-oleoyl-CoA (10,000 dpm/nmol) in 0.1M phosphate, pH 7.4, that contained 1 mM glutathione. Compounds were added in 5 μl of DMSO (dimethyl sulfoxide) and additional controls were run with DMSO only. All components, except the oleoyl-CoA, were preincubated for 15 min. at 37° C. prior to the initiation of the reaction by the addition of oleoyl-CoA. The assay was terminated after 10 min by the addition of 4 ml of chloroform:methanol (2:1, v/v). 20,000 dpm of ^3 H-cholesteryl oleate and 10 μg of unlabeled cholesteryl oleate and oleic acid were added as an internal standard and carriers, respectively. After allowing 10 min. for lipid extraction, the samples were centrifuged at 1,000×g for 10 min. to separate the solvent layers. The chloroform layer containing the neutral lipids was spotted onto a Baker SI250-Pa silica gel TLC plate and the plate developed using a hexane: diethyl ether: acetic acid (170:30:1 v/v/v) mobile phase. The lipids were visualized by their interaction with iodine vapor and the cholesteryl ester spot was scraped into a scintillation vial and counted.

The test system of test [2] is murine macrophage-like cell line J774.A1. As to the kind of experiment: Inhibition of cholesterol esterification in mammalian cells (macrophage assay). Type of test: cell-based. The following applies: J774.A1 macrophages loaded with ac-LDL, 14C-oleic acid; read-out: Cholesterol Esterification IC50. The protocol:
B. Assay of the Inhibition of Cholesterol Esterification in Mammalian Cells
The esterification of cholesterol was determined in the murine macrophage-like cell line J774.A1. Cells were seeded in 35 mm wells at a density of 300,000 cells per well in 2 mls of Dulbecco's Eagle Medium (DMEM) supplemented with 10% fetal bovine serum (FBS). Cells were incubated at 37° C. in an atmosphere of 5% CO2 and 93% humidity. After 24 hours the media was changed to 0.68 mls 10% FBS-DMEM containing 34 μg of acetylated human low density lipoprotein (ac-LDL) to increase the intracellular concentration of cholesterol and promote esterification. At 41 hours, various inhibitors were added to the cells in DMSO (10 μl/ml maximum). At 43 hours, the cells were pulsed with 0.1 mM ^14 C-oleic acid (10,000 dpm/nmol) complexed with BSA (bovine serum albumin) to follow cholesterol ester formation. The experiment was terminated at 45 hours by washing the monolayers 3 times with 3 ml of Tris-buffered saline at 4° C. The lipids were extracted by incubating the monolayers with 1.5 ml of hexane:isopropanol (3:2, v/v) for 30 min. under gentle agitation. During this period, 10,000 dpm 3H-cholesteryl linoleate and 10 μg of cholesteryl oleate were added as an internal standard and carrier respectively. The organic solvent was removed and the cells were washed with an additional 1.0 ml of hexane: isopropanol which was combined with the original extract. The cells were allowed to dry overnight, digested with 1.5 ml of 0.2N sodium hydroxide for 1 hour and an aliquot of the solubilized protein used for protein determination using the Lowry method. The organic extract was taken to dryness, the residue resuspended in 100 μl of chloroform and the lipids separated on silica gel impregnated glass fiber plates using a hexane:diethylether:acetic acid (170:30:1, v/v/v) solvent system. Individual lipids were visualized with iodine and the cholesteryl ester spot cut out and transferred to scintillation vials to determine the amount of radioactivity. The conversion of oleic acid to cholesteryl ester in the control averaged 0.54 […] and was increased upon the addition of ac-LDL to about 10.69±0.69 […]. […] It should be noted that many of the intermediates had inhibitory activity in the in vitro ACAT assay and in the macrophage assay.

The mark [3] stands for this setting: rat hepatic microsomes, read-out: In Vitro ACAT IC50.

Molecules are shown by their SMILES. Like-named read-outs stand apart in the source and are kept apart here.

`CCCCCCCN(CCCCCSc1nc(-c2ccccc2)c(-c2ccccc2)[nH]1)C(=O)Nc1ccccc1` [Example 2, N-[5-(4,5-diphenyl-1H-imidazol-2-ylthio)pentyl]-N-heptyl-N'-phenylurea]: the IC50 in test [1] (setting [3]) was found to be 3 nM; in test [2], 800 nM.

In the case of `CCCCN(CCCCCCCCSc1nc(-c2ccccc2)c(-c2ccccc2)[nH]1)C(=O)Nc1ccc(F)cc1F` [Example 4, N-butyl-N'-(2,4-difluorophenyl)-N-[8-(4,5-diphenyl-1H-imidazol-2-ylthio)octyl]urea], the IC50 in test [1] (setting [3]) was determined as 60 nM; in test [2], 4600 nM. On to `CCCCCCCN(CCCCCSc1nc(-c2ccccc2)c(-c2ccccc2)[nH]1)C(=O)Nc1ccc(OC)cc1OC` [Example 5, N'-(2,4-dimethoxyphenyl)-N-[5-(4,5-diphenyl-1H-imidazol-2-ylthio)pentyl]-N-heptylurea], for which the values for the IC50 in test [1] (setting [3]) and in test [2] were 12 nM and 2500 nM, respectively. The like results for `CCCCCCCN(CCCCCSc1nc(-c2ccccc2)c(-c2ccccc2)[nH]1)C(=O)NC` [Example 7, N-[5-(4,5-diphenyl-1H-imidazol-2-ylthio)pentyl]-N-heptyl-N'-methylurea] were, in that order, 41 nM and 7500 nM.

For the molecule `CCCN(CCSc1nc(-c2ccccc2)c(-c2ccccc2)[nH]1)C(=O)Nc1ccc(F)cc1F` [Example 9, N'-(2.4-difluorophenyl)-N[-2-(4,5-diphenyl-1H-imidazol-2-ylthio)ethyl]-N-propylurea], the IC50 in test [1] (setting [3]) came to 930 nM; in test [2] it was 11200 nM. With `CCCCCCCN(CCCCCSc1nc(-c2ccccc2)c(-c2ccccc2)n1-c1ccccc1)C(=O)Nc1ccc(F)cc1F` [Example 20], the IC50 in test [1] (setting [3]) amounted to 20 nM; in test [2], 54500 nM. The like results for `CCCCCCCN(CCCCCSc1nc(-c2ccccc2)c(-c2ccccc2)[nH]1)C(=O)Nc1cccc(F)c1` [Example 53, N-[5-(4,5-diphenyl-1H-imidazol-2-ylthio)pentyl]-N'-(3-fluorophenyl)-N-heptylurea] were, in that order, 17 nM and 400 nM.

Turning to `CCCCCCCN(CCCCCSc1nc(-c2ccccc2)c(-c2ccccc2)[nH]1)C(=O)Nc1c(Cl)cccc1Cl` [Example 64, N'-(2,6-dichlorophenyl)-N-[5-(4,5-diphenyl-1H-imidazol-2-ylthio)pentyl]-N-heptylurea], the values for the IC50 in test [1] (setting [3]) and in test [2] were 30 nM and 600 nM, respectively. Regarding `CCCCN(CCCCCCCCSc1nc(-c2ccccc2)c(-c2ccccc2)[nH]1)C(=O)NC(C)C` [Example 262], in test [1] (setting [3]), the IC50 was found to be 200 nM. Turning to `CCCCCCCN(CCCCC[S+]([O-])c1nc(-c2ccccc2)c(-c2ccccc2)[nH]1)C(=O)Nc1ccc(F)cc1F` (stereo not shown) [Example 278, N'-(2,4-difluorophenyl)-N-[5-(4,5-diphenyl-1H-imidazol-2-ylsulfinyl)pentyl]-N-heptylurea], the IC50 in test [2] worked out at 1200 nM.

With `CCCCCCCN(CCCCCS(=O)(=O)c1nc(-c2ccccc2)c(-c2ccccc2)[nH]1)C(=O)Nc1ccc(F)cc1F` [Example 281, N'-(2,4-difluorophenyl)-N-[5-[(4,5-diphenyl-1H-imidazol-2-yl)sulfonyl]pentyl]-N-heptylurea], the IC50 in test [2] was found to be 3500 nM. Same read-out and setting: next, `CCCCCCCN(CCCCCSc1nc(-c2ccccc2)c(-c2ccccc2)[nH]1)C(=S)Nc1c(F)cc(F)cc1F` [Example 298, N-[5-(4,5-diphenyl-1H-imidazol-2-ylthio)pentyl]-N-heptyl-N'-(2,4,6-trifluorophenyl)thiourea]: 2500 nM; `CCCCCCCN(CCCCCNc1nc(-c2ccccc2)c(-c2ccccc2)[nH]1)C(=O)Nc1ccc(F)cc1F` [Example 338, N'-(2,4-difluorophenyl)-N-[5-(4,5-diphenyl-1H-imidazol-2-ylamino)pentyl]-N-heptylurea]: 3400 nM; `CCCCCCCN(CCCCCCc1nc(-c2ccccc2)c(-c2ccccc2)[nH]1)C(=O)Nc1ccc(F)cc1F` [Example 339, N'-(2,4-difluorophenyl)-N-[6-(4,5-diphenyl-1H-imidazol-2-yl)hexyl]-N-heptylurea]: 4400 nM. On the same count and under the same terms, then `CCCCCCCN(CCCCCSc1nc(-c2ccccc2)c(-c2ccccc2)[nH]1)C(=O)Cc1ccc(F)cc1F` [Example 340, 2,4-difluoro-N-[(5-(4,5-diphenyl-1H-imidazol-2-ylthio)pentyl)]-N-heptylbenzeneacetamide], with 200 nM. On the same count and under the same terms, then `CCCCCCCN(CCCCCSc1nc(-c2ccccc2)c(-c2ccccc2)[nH]1)C(=O)Cc1ccc(-c2ccccc2)cc1` [Example 343, N-[5-(4,5-diphenyl-1H-imidazol-2-ylthio)pentyl]-N-heptyl[1,1'-biphenyl]-4-acetamide], with 1100 nM; and `CCCCCCCN(CCCCCSc1nc(-c2ccccc2)c(-c2ccccc2)[nH]1)C(=O)CC1CCCCC1` [Example 344], with 400 nM; and `CCCCCCCN(CCCCCSc1nc(-c2ccccc2)c(-c2ccccc2)[nH]1)C(=O)c1ccc(F)cc1F` [Example 345], with 300 nM. `CCCCCCCN(CCCCCSc1nc(-c2ccccc2)c(-c2ccccc2)[nH]1)C(=O)c1ccccc1` [Example 346]: the IC50 in test [2] was 500 nM.

For the molecule `CCCCCCCN(CCCCCSc1nc(-c2ccccc2)c(-c2ccccc2)[nH]1)C(=O)OC1CCCCC1` [Example 401, cyclohexyl [5-(4,5-diphenyl-1H-imidazol-2-ylthio)pentyl]heptylcarbamate], the IC50 in test [2] was 400 nM. For `CCCCCCCN(CCCCCSc1nc(-c2ccccc2)c(-c2ccccc2)[nH]1)C(=O)Oc1ccccc1` [Example 402, Phenyl [5-(4,5-diphenyl-1H-imidazol-2-ylthio)pentyl]heptylcarbamate], in test [2], the IC50 was determined as 400 nM.

As for `CCCCCCCN(CCCCCSc1nc(-c2ccc(N(C)C)cc2)c(-c2ccc(N(C)C)cc2)[nH]1)C(=O)Oc1ccccc1` [Example 409, Phenyl [5-[4,5-bis(4-(dimethylamino)phenyl)-1H-imidazol-2-ylthio]pentyl]heptylcarbamate], the midpoint of inhibition in test [1] (In Vitro ACAT IC50, rat hepatic microsomes), the IC50, lay at 120 nM. Take `CCCCCCCN(CCCCCSc1nc(-c2ccccc2)c(-c2ccccc2)[nH]1)C(=N)Nc1ccccc1` [Example 499, N-[5-(4,5-diphenyl-1H-imidazol-2-ylthio)-pentyl]-N-heptyl-N'-phenylguanidine]: the IC50 in test [2] is 3400 nM.
